Here are results for 36 molecules from patent US20230192686A1, “1H-PYRROLO[2,3-B]PYRIDINES AND PREPARATION AND USES THEREOF” (BioSplice Therapeutics, Inc., priority 2021, published 2023).

pEC50: −log10 of the molar value.

In general, pEC50 refers to the negative decadic logarithm of the EC50, by convention in mol/L.

The test deals with recombinant DYRK1A kinase (Homo sapiens, UniProt Q13627). The experiment in a line: DYRK1A kinase assay (Ser/Thr 18 peptide Z-lyte FRET). The class given is biochemical. To be noted: DYRK1A kinase activity; 15 μM ATP, 4 μM Ser/Thr peptide 18, one hour at room temperature. The essentials: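 Recombinant DYRK1A at 0.25 μg/mL was incubated 1 h at room temperature with 15 μM ATP, 4 μM Ser/Thr 18 peptide and compound, in duplicate, 11-point series from 10 μM. Phosphorylation was read by Z-lyte FRET after 1 h protease development, as the coumarin/fluorescein emission ratio converted to % phosphorylation. IC50 by non-linear regression.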
For the molecule `Cc1nc2c(F)cc(-c3c[nH]c4ncc(-c5ccc(N6CCN(C)CC6)nc5)cc34)cc2n1C(C)C` [Compound 1333, 4-Fluoro-1-isopropyl-2-methyl-6-(5-(6-(4-methylpiperazin-1-yl)pyridin-3-yl)-1H-pyrrolo[2,3-b]pyridin-3-yl)-1H-benzo[d]imidazole], the pEC50 was 9.00.
On to `CN1CCN(c2ccc(-c3cnc4[nH]cc(-c5ccc6ncccc6c5)c4c3)cn2)CC1` [Compound 1362, 6-(5-(6-(4-Methylpiperazin-1-yl)pyridin-3-yl)-1H-pyrrolo[2,3-b]pyridin-3-yl)quinoline], for which the negative logarithm of the EC50 (pEC50) was 9.00.
On to `CN1CCN(c2cc(-c3cnc4[nH]cc(-c5cc6ccncc6s5)c4c3)ccn2)CC1` [Compound 1370, 2-(5-(2-(4-Methylpiperazin-1-yl)pyridin-4-yl)-1H-pyrrolo[2,3-b]pyridin-3-yl)thieno[2,3-c]pyridine], for which the pEC50 was 8.22.
Next, `CN1CCN(c2cc(-c3cnc4[nH]cc(-c5ccc6nccn6c5)c4c3)ccn2)CC1` [Compound 1372, 6-(5-(2-(4-Methylpiperazin-1-yl)pyridin-4-yl)-1H-pyrrolo[2,3-b]pyridin-3-yl)imidazo[1,2-a]pyridine]: 9.00; `Cc1nc2c(F)cc(-c3c[nH]c4ncc(-c5ccnc(N6CCN(C)CC6)c5)cc34)cc2n1C(C)C` [Compound 1375, 4-Fluoro-1-isopropyl-2-methyl-6-(5-(2-(4-methylpiperazin-1-yl)pyridin-4-yl)-1H-pyrrolo[2,3-b]pyridin-3-yl)-1H-benzo[d]imidazole]: 8.70.
Next, `CN1CCN(c2cc(-c3cnc4[nH]cc(-c5ccn6ncc(-c7cnn(C)c7)c6c5)c4c3)ccn2)CC1` [Compound 1384, 3-(3-(1-methyl-1H-pyrazol-4-yl)pyrazolo[1,5-a]pyridin-5-yl)-5-(2-(4-methylpiperazin-1-yl)pyridin-4-yl)-1H-pyrrolo[2,3-b]pyridine]: 9.00.
The same measure for `CN1CCN(c2cc(-c3cnc4[nH]cc(-c5ccc6c(c5)C5(CCCCC5)NC6=O)c4c3)ccn2)CC1` [Compound 1398, 6′-(5-(2-(4-Methylpiperazin-1-yl)pyridin-4-yl)-1H-pyrrolo[2,3-b]pyridin-3-yl)spiro[cyclohexane-1,1′-isoindolin]-3′-one]: 8.40.
With `CN1CCN(c2cc(-c3cnc4[nH]cc(-c5ccc6ncccc6c5)c4c3)ccn2)CC1` [Compound 1404, 6-(5-(2-(4-Methylpiperazin-1-yl)pyridin-4-yl)-1H-pyrrolo[2,3-b]pyridin-3-yl)quinoline], the pEC50 is 9.00.
Next, `Clc1ccc2c(-c3ccc4ncccc4c3)c[nH]c2n1` [Compound 1446, 6-(6-Chloro-1H-pyrrolo[2,3-b]pyridin-3-yl)quinoline]: 7.96; `Cc1ccc2c(-c3cc(F)c4nc(C)n(C(C)C)c4c3)c[nH]c2n1` [Compound 1459, 4-Fluoro-1-isopropyl-2-methyl-6-(6-methyl-1H-pyrrolo[2,3-b]pyridin-3-yl)-1H-benzo[d]imidazole]: 8.40.
On to `Cc1ccc2c(-c3ccc4c(c3)C(C)(C)NC4=O)c[nH]c2n1` [Compound 1481, 3,3-Dimethyl-5-(6-methyl-1H-pyrrolo[2,3-b]pyridin-3-yl)isoindolin-1-one], for which the pEC50 is 7.24.
With `Cn1cc2cc(-c3c[nH]c4nc(C5CC5)ccc34)ccc2n1` [Compound 1495, 5-(6-Cyclopropyl-1H-pyrrolo[2,3-b]pyridin-3-yl)-2-methyl-2H-indazole], the pEC50 was 6.98.
The same measure for `O=C(NCC(F)F)c1cnc2ccc(-c3c[nH]c4nc(C5CC5)ccc34)cn12` [Compound 1499, 6-(6-Cyclopropyl-1H-pyrrolo[2,3-b]pyridin-3-yl)-N-(2,2-difluoroethyl) imidazo[1,2-a]pyridine-3-carboxamide]: 9.00; for `c1cn2cc(-c3c[nH]c4nc(C5CC5)ccc34)cnc2n1` [Compound 1500, 6-(6-Cyclopropyl-1H-pyrrolo[2,3-b]pyridin-3-yl)imidazo[1,2-a] pyrimidine]: 8.30.
Next, `c1nc2ccc(-c3c[nH]c4nc(C5CC5)ccc34)cn2n1` [Compound 1505, 6-(6-Cyclopropyl-1H-pyrrolo[2,3-b]pyridin-3-yl)-[1,2,4]triazolo[1,5-a] pyridine]: 7.00.
Regarding `Cn1nnc2ccc(-c3c[nH]c4nc(C5CC5)ccc34)cc21` [Compound 1507, 6-(6-Cyclopropyl-1H-pyrrolo[2,3-b]pyridin-3-yl)-1-methyl-1H-benzo[d][1,2,3]triazole], the pEC50 was 7.42.
Next, `CN1CCN(C(=O)c2cnn3ccc(-c4c[nH]c5nc(C6CC6)ccc45)cc23)CC1` [Compound 1517, (5-(6-Cyclopropyl-1H-pyrrolo[2,3-b]pyridin-3-yl)pyrazolo[1,5-a]pyridin-3-yl)(4-methylpiperazin-1-yl)methanone]: 7.18; `COc1ncnc2ccc(-c3c[nH]c4nc(C5CC5)ccc34)cc12` [Compound 1533, 6-(6-Cyclopropyl-1H-pyrrolo[2,3-b]pyridin-3-yl)-4-methoxyquinazoline]: 6.64; `CN1CCN(c2ncnc3ccc(-c4c[nH]c5nc(C6CC6)ccc45)cc23)CC1` [Compound 1534, 6-(6-Cyclopropyl-1H-pyrrolo[2,3-b]pyridin-3-yl)-4-(4-methylpiperazin-1-yl)quinazoline]: 7.92.
Consider `Cc1nc2c(F)cc(-c3c[nH]c4nc(C5CCC5)ccc34)cc2n1C(C)C` [Compound 1543, 6-(6-Cyclobutyl-1H-pyrrolo[2,3-b]pyridin-3-yl)-4-fluoro-1-isopropyl-2-methyl-1H-benzo[d]imidazole], for which the pEC50 is 7.37.
The same measure for `Cc1nc2cnc(-c3c[nH]c4nc(C5CCC5)ccc34)cc2n1C(C)C` [Compound 1546, 6-(6-Cyclobutyl-1H-pyrrolo[2,3-b]pyridin-3-yl)-1-isopropyl-2-methyl-1H-imidazo[4,5-c]pyridine]: 5.69; for `c1nc2ccc(-c3c[nH]c4nc(C5CCC5)ccc34)cn2n1` [Compound 1547, 6-(6-Cyclobutyl-1H-pyrrolo[2,3-b]pyridin-3-yl)-[1,2,4]triazolo[1,5-a] pyridine]: 6.92; for `O=C(NCC(F)F)c1cnn2ccc(-c3c[nH]c4nc(C5CCC5)ccc34)cc12` [Compound 1554, 5-(6-Cyclobutyl-1H-pyrrolo[2,3-b]pyridin-3-yl)-N-(2,2-difluoroethyl) pyrazolo[1,5-a]pyridine-3-carboxamide]: 8.10.
The same measure for `CN1CCC(NC(=O)c2cnn3ccc(-c4c[nH]c5nc(C6CCC6)ccc45)cc23)CC1` [Compound 1556, 5-(6-Cyclobutyl-1H-pyrrolo[2,3-b]pyridin-3-yl)-N-(1-methylpiperidin-4-yl)pyrazolo[1,5-a]pyridine-3-carboxamide]: 8.30.
Next, `O=C(c1cnn2ccc(-c3c[nH]c4nc(C5CCC5)ccc34)cc12)N1CCCCC1` [Compound 1558, (5-(6-Cyclobutyl-1H-pyrrolo[2,3-b]pyridin-3-yl)pyrazolo[1,5-a]pyridin-3-yl)(piperidin-1-yl)methanone]: 6.54; `O=C1NCCOc2cc(-c3c[nH]c4nc(C5CCC5)ccc34)ccc21` [Compound 1571, 8-(6-Cyclobutyl-1H-pyrrolo[2,3-b]pyridin-3-yl)-3,4-dihydrobenzo[f] [1,4]oxazepin-5(2H)-one]: 7.30; `CN1CCC(Oc2ncnc3ccc(-c4c[nH]c5nc(C6CCC6)ccc45)cc23)CC1` [Compound 1577, 6-(6-Cyclobutyl-1H-pyrrolo[2,3-b]pyridin-3-yl)-4-((1-methylpiperidin-4-yl)oxy)quinazoline]: 6.67.
For the molecule `COc1ccc2c(-c3ccc4nccn4c3)c[nH]c2n1` [Compound 1666, 6-(6-Methoxy-1H-pyrrolo[2,3-b]pyridin-3-yl)imidazo[1,2-a]pyridine], the pEC50 was 7.74.
Next, `COc1ccc2c(-c3ccc4ncnn4c3)c[nH]c2n1` [Compound 1673, 6-(6-Methoxy-1H-pyrrolo[2,3-b]pyridin-3-yl)-[1,2,4]triazolo[1,5-a] pyridine]: 7.19.
On to `COc1ccc2c(-c3ccc4ncccc4c3)c[nH]c2n1` [Compound 1698, 6-(6-Methoxy-1H-pyrrolo[2,3-b]pyridin-3-yl)quinoline], for which the pEC50 is 8.15.
Regarding `CCOc1ccc2c(-c3ccc4ncnn4c3)c[nH]c2n1` [Compound 1757, 6-(6-Ethoxy-1H-pyrrolo[2,3-b]pyridin-3-yl)-[1,2,4]triazolo[1,5-a] pyridine], the negative logarithm of the EC50 (pEC50) is 6.84.
As for `Cc1nc2c(F)cc(-c3c[nH]c4nc(CO)ccc34)cc2n1C(C)C` [Compound 1795, (3-(4-Fluoro-1-isopropyl-2-methyl-1H-benzo[d]imidazol-6-yl)-1H-pyrrolo[2,3-b]pyridin-6-yl)methanol], the pEC50 was 8.10.
Take `O=C(Nc1cccnc1)c1cnn2ccc(-c3c[nH]c4nc(CO)ccc34)cc12` [Compound 1809, 5-(6-(Hydroxymethyl)-1H-pyrrolo[2,3-b]pyridin-3-yl)-N-(pyridin-3-yl) pyrazolo[1,5-a]pyridine-3-carboxamide]: the pEC50 was 8.52.
Next, `CN1CCC(C(=O)Nc2ccc3c(-c4ccc5nn(C)cc5c4)c[nH]c3n2)CC1` [Compound 1831, 1-Methyl-N-(3-(2-methyl-2H-indazol-5-yl)-1H-pyrrolo[2,3-b]pyridin-6-yl)piperidine-4-carboxamide]: 9.00; `Cc1nc2c(F)cc(-c3c[nH]c4nc(NC(=O)C5CCN(C)CC5)ccc34)cc2n1C(C)C` [Compound 1837, N-(3-(4-Fluoro-1-isopropyl-2-methyl-1H-benzo[d]imidazol-6-yl)-1H-pyrrolo[2,3-b]pyridin-6-yl)-1-methylpiperidine-4-carboxamide]: 9.00.
Next, `CN1CCC(C(=O)Nc2ccc3c(-c4ccn5ncc(-c6cccnc6)c5c4)c[nH]c3n2)CC1` [Compound 1847, 1-Methyl-N-(3-(3-(pyridin-3-yl)pyrazolo[1,5-a]pyridin-5-yl)-1H-pyrrolo[2,3-b]pyridin-6-yl)piperidine-4-carboxamide]: 9.00.
